Test results from patent publication US20230085307A1, “PYRIDAZINONE COMPOUND AND HERBICIDE” (NISSAN CHEMICAL CORPORATION, priority 2019, published 2023).

Assays:
[1] = tested on: late watergrass; experiment: Test Example 1: herbicidal activity, application before weed generation under submerged conditions (Table 16, symbol A); format: in vivo, late watergrass (Echinochloa oryzicola); settings: 320 g/ha applied herbicide
How it was run: (§1)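 Alluvial soil was flooded to 4 cm depth, weed seeds were sown mixed and 2.5-leaf rice seedlings were transplanted. On sowing day, the compound's emulsion, diluted in water to a set dose, was applied to the water surface. Plants grew at 25–30 °C and were scored 0–5 after three weeks.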

[2] = tested on: Japanese bulrush; experiment: Test Example 1: herbicidal activity, application before weed generation under submerged conditions (Table 16, symbol B); format: in vivo, Japanese bulrush (Schoenoplectus juncoides); settings: 320 g/ha applied herbicide
How it was run: as §1

[3] = tested on: oval-leafed pondweed; experiment: Test Example 1: herbicidal activity, application before weed generation under submerged conditions (Table 16, symbol C); format: in vivo, oval-leafed pondweed (Monochoria vaginalis); settings: 320 g/ha applied herbicide
How it was run: as §1

[4] = tested on: barnyard grass; experiment: Test Example 3: herbicidal effect by foliage application, Wagner pot (Table 18, symbol H); format: in vivo, barnyard grass (Echinochloa crus-galli); settings: amount of applied herbicide 320 g/ha
How it was run: (§2)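 Plants were sown in alluvial soil held under 0.1–0.5 cm standing water and grown 14 days in a greenhouse at 25–30 °C. An emulsifiable formulation, water-diluted to the set dose, was then sprayed onto the foliage, and effects were scored three weeks later using previously defined criteria.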

[5] = tested on: Chinese sprangletop; experiment: Test Example 3: herbicidal effect by foliage application, Wagner pot (Table 18, symbol D); format: in vivo, chinese sprangletop (Leptochloa chinensis); settings: amount of applied herbicide 320 g/ha
How it was run: as §2

[6] = tested on: southern crabgrass; experiment: Test Example 4: herbicidal effect by soil treatment (Table 19, symbol F); format: in vivo, southern crabgrass (Digitaria ciliaris); settings: amount of applied herbicide 320 g/ha
How it was run: (§3)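 Soil-surface application: an emulsion agent diluted with water to the predetermined dose is sprayed uniformly over seeds lying under roughly 1.5 cm of sterilized diluvial soil. Boxes stay in a greenhouse at 25° C. to 30° C. Three weeks later, each species is graded on previously defined criteria.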

[7] = tested on: green foxtail; experiment: Test Example 4: herbicidal effect by soil treatment (Table 19, symbol G); format: in vivo, green foxtail (Setaria viridis); settings: amount of applied herbicide 320 g/ha
How it was run: as §3

[8] = tested on: barnyard grass; experiment: Test Example 4: herbicidal effect by soil treatment (Table 19, symbol H); format: in vivo, barnyard grass (Echinochloa crus-galli); settings: amount of applied herbicide 320 g/ha
How it was run: as §3

[9] = tested on: wild oat; experiment: Test Example 4: herbicidal effect by soil treatment (Table 19, symbol I); format: in vivo, wild oat (Avena fatua); settings: amount of applied herbicide 320 g/ha
How it was run: as §3

[10] = tested on: blackgrass; experiment: Test Example 4: herbicidal effect by soil treatment (Table 19, symbol J); format: in vivo, blackgrass (Alopecurus myosuroides); settings: amount of applied herbicide 320 g/ha
How it was run: as §3

[11] = tested on: Italian ryegrass; experiment: Test Example 4: herbicidal effect by soil treatment (Table 19, symbol K); format: in vivo, Italian ryegrass (Lolium multiflorum); settings: amount of applied herbicide 320 g/ha
How it was run: as §3

[12] = tested on: windgrass; experiment: Test Example 4: herbicidal effect by soil treatment (Table 19, symbol L); format: in vivo, windgrass (Apera spica-venti); settings: amount of applied herbicide 320 g/ha
How it was run: as §3

[13] = tested on: velvetleaf; experiment: Test Example 4: herbicidal effect by soil treatment (Table 19, symbol M); format: in vivo, velvetleaf (Abutilon theophrasti); settings: amount of applied herbicide 320 g/ha
How it was run: as §3

[14] = tested on: redroot pigweed; experiment: Test Example 4: herbicidal effect by soil treatment (Table 19, symbol N); format: in vivo, redroot pigweed (Amaranthus retroflexus); settings: amount of applied herbicide 320 g/ha
How it was run: as §3

[15] = tested on: lambsquarters; experiment: Test Example 4: herbicidal effect by soil treatment (Table 19, symbol O); format: in vivo, lambsquarters (Chenopodium album); settings: amount of applied herbicide 320 g/ha
How it was run: as §3

[16] = tested on: chickweed; experiment: Test Example 4: herbicidal effect by soil treatment (Table 19, symbol P); format: in vivo, common chickweed (Stellaria media); settings: amount of applied herbicide 320 g/ha
How it was run: as §3

[17] = tested on: false cleavers; experiment: Test Example 4: herbicidal effect by soil treatment (Table 19, symbol Q); format: in vivo, false cleavers (Galium spurium); settings: amount of applied herbicide 320 g/ha
How it was run: as §3

[18] = tested on: persian speedwell; experiment: Test Example 4: herbicidal effect by soil treatment (Table 19, symbol R); format: in vivo, Persian speedwell (Veronica persica); settings: amount of applied herbicide 320 g/ha
How it was run: as §3

[19] = tested on: southern crabgrass; experiment: Test Example 5: herbicidal effect by foliage application, plastic box (Table 20, symbol F); format: in vivo, southern crabgrass (Digitaria ciliaris); settings: foliage application, 320 g/ha, evaluated three weeks after application
How it was run: (§4)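 Sow seeds spot-wise in sterilized diluvial soil; cover with ~1.5 cm soil. Grow 14 days in greenhouse, 25° C. to 30° C. Spray foliage with emulsion diluted to predetermined amount. Rate effect after 3 weeks.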

[20] = tested on: green foxtail; experiment: Test Example 5: herbicidal effect by foliage application, plastic box (Table 20, symbol G); format: in vivo, green foxtail (Setaria viridis); settings: foliage application, 320 g/ha, evaluated three weeks after application
How it was run: as §4

[21] = tested on: barnyard grass; experiment: Test Example 5: herbicidal effect by foliage application, plastic box (Table 20, symbol H); format: in vivo, barnyard grass (Echinochloa crus-galli); settings: foliage application, 320 g/ha, evaluated three weeks after application
How it was run: as §4

[22] = tested on: wild oat; experiment: Test Example 5: herbicidal effect by foliage application, plastic box (Table 20, symbol I); format: in vivo, wild oat (Avena fatua); settings: foliage application, 320 g/ha, evaluated three weeks after application
How it was run: as §4

[23] = tested on: blackgrass; experiment: Test Example 5: herbicidal effect by foliage application, plastic box (Table 20, symbol J); format: in vivo, blackgrass (Alopecurus myosuroides); settings: foliage application, 320 g/ha, evaluated three weeks after application
How it was run: as §4

[24] = tested on: Italian ryegrass; experiment: Test Example 5: herbicidal effect by foliage application, plastic box (Table 20, symbol K); format: in vivo, Italian ryegrass (Lolium multiflorum); settings: foliage application, 320 g/ha, evaluated three weeks after application
How it was run: as §4

[25] = tested on: windgrass; experiment: Test Example 5: herbicidal effect by foliage application, plastic box (Table 20, symbol L); format: in vivo, windgrass (Apera spica-venti); settings: foliage application, 320 g/ha, evaluated three weeks after application
How it was run: as §4

[26] = tested on: velvetleaf; experiment: Test Example 5: herbicidal effect by foliage application, plastic box (Table 20, symbol M); format: in vivo, velvetleaf (Abutilon theophrasti); settings: foliage application, 320 g/ha, evaluated three weeks after application
How it was run: as §4

[27] = tested on: redroot pigweed; experiment: Test Example 5: herbicidal effect by foliage application, plastic box (Table 20, symbol N); format: in vivo, redroot pigweed (Amaranthus retroflexus); settings: foliage application, 320 g/ha, evaluated three weeks after application
How it was run: as §4

[28] = tested on: lambsquarters; experiment: Test Example 5: herbicidal effect by foliage application, plastic box (Table 20, symbol O); format: in vivo, lambsquarters (Chenopodium album); settings: foliage application, 320 g/ha, evaluated three weeks after application
How it was run: as §4

[29] = tested on: chickweed; experiment: Test Example 5: herbicidal effect by foliage application, plastic box (Table 20, symbol P); format: in vivo, common chickweed (Stellaria media); settings: foliage application, 320 g/ha, evaluated three weeks after application
How it was run: as §4

[30] = tested on: persian speedwell; experiment: Test Example 5: herbicidal effect by foliage application, plastic box (Table 20, symbol R); format: in vivo, Persian speedwell (Veronica persica); settings: foliage application, 320 g/ha, evaluated three weeks after application
How it was run: as §4

COc1cc(F)ccc1-c1sc2ccc(NC(C)=O)cc2c1-c1c(O)c(C)nn(C)c1=O [2-175]
Herbicidal effect on A: late watergrass (grade 0-5) [1]: 3 (Herbicidal rate of 40% or more and less than 70%) | Herbicidal effect on B: Japanese bulrush (grade 0-5) [2]: 0 (Herbicidal rate of 5% or less (almost no effect)) | Herbicidal effect on C: oval-leafed pondweed (grade 0-5) [3]: 0 (Herbicidal rate of 5% or less (almost no effect)) | herbicidal effect on H: barnyard grass [4]: 4 (Herbicidal rate of 70% or more and less than 90%) | herbicidal effect on D: Chinese sprangletop [5]: 3 (Herbicidal rate of 40% or more and less than 70%) | F: southern crabgrass, herbicidal effect rating [6]: 0 (Herbicidal rate of 5% or less (almost no effect)) | G: green foxtail, herbicidal effect rating [7]: 0 (Herbicidal rate of 5% or less (almost no effect)) | H: barnyard grass, herbicidal effect rating [8]: 0 (Herbicidal rate of 5% or less (almost no effect)) | I: wild oat, herbicidal effect rating [9]: 0 (Herbicidal rate of 5% or less (almost no effect)) | J: blackgrass, herbicidal effect rating [10]: 0 (Herbicidal rate of 5% or less (almost no effect)) | K: Italian ryegrass, herbicidal effect rating [11]: 0 (Herbicidal rate of 5% or less (almost no effect)) | L: windgrass, herbicidal effect rating [12]: 0 (Herbicidal rate of 5% or less (almost no effect)) | M: velvetleaf, herbicidal effect rating [13]: 0 (Herbicidal rate of 5% or less (almost no effect)) | N: redroot pigweed, herbicidal effect rating [14]: 4 (Herbicidal rate of 70% or more and less than 90%) | O: lambsquarters, herbicidal effect rating [15]: 4 (Herbicidal rate of 70% or more and less than 90%) | P: chickweed, herbicidal effect rating [16]: 0 (Herbicidal rate of 5% or less (almost no effect)) | Q: false cleavers, herbicidal effect rating [17]: 0 (Herbicidal rate of 5% or less (almost no effect)) | R: persian speedwell, herbicidal effect rating [18]: 0 (Herbicidal rate of 5% or less (almost no effect)) | herbicidal effect on F: southern crabgrass (criteria 0-5) [19]: 3 (Herbicidal rate of 40% or more and less than 70%) | herbicidal effect on G: green foxtail (criteria 0-5) [20]: 4 (Herbicidal rate of 70% or more and less than 90%) | herbicidal effect on H: barnyard grass (criteria 0-5) [21]: 1 (Herbicidal rate of 5% or more and less than 20%) | herbicidal effect on I: wild oat (criteria 0-5) [22]: 3 (Herbicidal rate of 40% or more and less than 70%) | herbicidal effect on J: blackgrass (criteria 0-5) [23]: 5 (Herbicidal rate of 90% or more (almost completely withered)) | herbicidal effect on K: Italian ryegrass (criteria 0-5) [24]: 0 (Herbicidal rate of 5% or less (almost no effect)) | herbicidal effect on L: windgrass (criteria 0-5) [25]: 5 (Herbicidal rate of 90% or more (almost completely withered)) | herbicidal effect on M: velvetleaf (criteria 0-5) [26]: 3 (Herbicidal rate of 40% or more and less than 70%) | herbicidal effect on N: redroot pigweed (criteria 0-5) [27]: 5 (Herbicidal rate of 90% or more (almost completely withered)) | herbicidal effect on O: lambsquarters (criteria 0-5) [28]: 5 (Herbicidal rate of 90% or more (almost completely withered)) | herbicidal effect on P: chickweed (criteria 0-5) [29]: 5 (Herbicidal rate of 90% or more (almost completely withered)) | herbicidal effect on R: persian speedwell (criteria 0-5) [30]: 1 (Herbicidal rate of 5% or more and less than 20%)
